Laboratory results published in patent publication US20230331679A1, “NAPHTHALENE MONOIMIDE COMPOUNDS AND METHODS THEREOF” (JAWAHARLAL NEHRU CENTRE FOR ADVANCED SCIENTIFIC RESEARCH, priority 2020, published 2023).

Legend:
Aβ42 = target: T1, Aβ42 (Homo sapiens, UniProt P05067); assay: ThT binding assay, inhibition of Aβ42 fibrillar assembly; type: biochemical; conditions: for inhibitory effect on Aβ42 aggregation (ThT NFI at 482 nm): 1:1 molar ratio, 10 µM Aβ42, 10 µM inhibitor, 72 h; for decrease in the formation of Aβ aggregates: Aβ42/inhibitor 1:1, Aβ42 10 µM; for decrease in the formation of Aβ aggregates / Aβ aggregation decreased to: third day of incubation
T1 construct: commercially available β-amyloid peptide (1-42), human; purchased marck (so in the source) PP69-.025 mg
T1 sequence (P05067 672-713 limits assumed): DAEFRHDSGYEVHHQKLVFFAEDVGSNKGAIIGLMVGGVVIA
Experimental: (§1) Monomeric form of Aβ42 peptide was prepared by dissolving 0.25 mg of commercially available β-amyloid peptide (1-42), human (cat: PP69-.025 mg), marck peptide in 250 µL of hexafluoro-2-propanol (HFIP) solvent to obtain a Aβ42 solution. This solution was incubated at room temperature for 1 hour, further to which the HFIP solvent was removed by nitrogen gas flow to obtain the monomeric Aβ42 peptide. To prepare a fibrillar sample of Aβ42 peptide, 0.025 mg of Aβ42 peptide was dissolved in […] of PBS buffer (pH = 7.4; contains 2% of DMSO or 100 mM NaOH) to obtain a monomeric Aβ42 solution and the peptide concentration in this solution was calculated through UV-Visible absorbance studies (ε = 1450 cm^-1 M^-1). The Aβ42 monomeric solution was incubated for 5 days in PBS buffer (pH = 7.4) to allow for the full phase formation of Aβ42 fibrils. The presence of Aβ42 fibrils was further confirmed by ThT assay.
Initially, the ability of the prepared NMI compounds, TGR63-68 to inhibit Aβ42 fibrillar assembly at 1:1 molar ratio with Aβ42 fibrils was evaluated using thioflavin (ThT) binding assay. 10 µM of Aβ42 fibrils in the absence (Ctrl) and the presence of 10 µM of inhibitors individually were incubated for 72 h. A normalized data for fluorescence intensity (NFI) of ThT at 482 nm (λex = 442 nm) was measured as represented in FIG. 1(a).
(§2) The ability of NMI compounds (TGR63, TGR64 and TGR65) to prevent Aβ42 fibrillar assembly (inhibition) and to break down the preformed fibrils (dissolution) was evaluated using thioflavin (ThT) binding assay. Aβ42 fibrils at a concentration of 10 µM and its aggregates, were used to study the effect of NMI compounds (TGR63, TGR64 and TGR65) at varying concentrations on both inhibition and dissolution assays. For the inhibition assay, all the NMI compounds (TGR63, TGR64 and TGR65) were added independently to Aβ peptide (10 µM) at 0 h of the experiment, whereas for the aggregates dissolution assay they were added to Aβ42 fibrillar aggregates grown for 2 days. Upon incubating for a predetermined period, Aβ42 inhibitor samples were analyzed using ThT by measuring the fluorescence change at 485 nm as presented in FIG. 1(b) and FIG. 1(c), wherein the error bars represent the standard deviation (SD) of the fluorescence measurement. Fluorescence values were normalized to maximal fluorescence intensity at 485 nm compared to that of the control (Aβ42 with no inhibitor). Experiments were performed at various stoichiometric ratios (Aβ42/inhibitor) of 1:1, 1:2, and 1:5 with a fixed concentration of Aβ42 at 10 µM. Each experiment was repeated three times (n = 3). […] TGR 63 recorded 80% dissolution efficiency while TGR 64 and TGR 65 recorded 75% and 78% dissolution efficiency respectively, for the stoichiometric ratio of 1:5.

PC12 cells = assay: Rescue of PC12 cells from Aβ42 toxicity (MTT cell viability assay); conditions: for viability at 40 µM: Rattus norvegicus, PC-12, 24 h, read-out: cell viability, PC12 cells, Aβ42 20 µM + compound 40 µM, 24 h; for enhancement in the viability of cells from Aβ toxicity: versus Aβ42 alone (54%)
Experimental: A 96-well plate was used to culture the cells (15,000 per well) with RPMI media (10% fetal bovine serum (FBS), 5% horse serum (HS,), and 1% pen-strep (PS)) at 37° C. temperature in a 5% CO2 atmosphere. Then the media was exchanged with low serum (2% FBS) media and monomeric Aβ42 was added in the absence and presence of NMI compounds and incubated for 24 h.
The structure-activity relationship (SAR) of NMI compounds towards rescuing PC12 cells from Aβ toxicity was investigated. […] Each experiment was repeated three times (n = 3), and error bars represent the standard deviation (SD).
An Alzheimer’s disease-like environment was mimicked by exposing the cultured PC12 cells to 20 µM of Aβ42 fibrils, which formed cytotoxic aggregation species in the growth media.

α-Syn = α-Syn (Homo sapiens, UniProt P37840); assay: ThT binding assay, α-Syn aggregation inhibition; type: biochemical
Excerpt: Parkinson’s disease (PD) is a neuronal disorder, mainly affects the motor system. α-Syn is a presynaptic neuronal protein that is linked neuropathologically to PD plays a vital role in the pathogenesis in a number of ways. Self-aggregation of α-Syn to form fibrillar aggregates and these toxic species mediate disruption of cellular homeostasis and cause neuronal death. These toxic aggregates affect various intracellular targets, especially synaptic function. In this context, NMI compounds of the present disclosure were used to study the possible modulation of α-Syn aggregation. The effect of NMI compounds (TGR63 and TGR64) on α-syn (100 µM) aggregation inhibition was studied through ThT binding assay. Experiments were performed at stoichiometric ratios (α-Syn:inhibitor) of 1:1, 1:2, and 1:5 with the fixed concentration of α-Syn at 100 µM.

[1] = target: T2, Aβ42 fibrillar aggregates (Homo sapiens, UniProt P05067); assay: ThT binding assay, dissolution of preformed Aβ42 fibrils; type: biochemical; conditions: after sixth day of incubation
T2 construct: commercially available β-amyloid peptide (1-42), human; purchased marck (so in the source) PP69-.025 mg
T2 sequence (P05067 672-713 limits assumed): as above
Experimental: as §1, §2

CN(C)c1ccc(C#Cc2ccc3c4c(cccc24)C(=O)N(CCN)C3=O)cc1 [TGR64, 2-(2-aminoethyl)-6-((4-(dimethylamino)phenyl)ethynyl)-1H-benzo[de]isoquinoline-1,3(2H)-dione]
inhibitory effect on Aβ42 aggregation (ThT NFI at 482 nm) (Aβ42): ~38%
decrease in the formation of Aβ aggregates (Aβ42): ~ 50%
Aβ aggregation decreased to (Aβ42; Aβ42/inhibitor 1:2, Aβ42 10 µM): 75%
Aβ aggregation decreased to (Aβ42; Aβ42/inhibitor 1:5, Aβ42 10 µM): 90%
cell viability (PC12 cells; PC12 cells, Aβ42 20 µM + compound 40 µM, 24 h, Aβ42 alone 54%, untreated 100%): 76%
viability at 40 µM (PC12 cells; Aβ42 alone 54%, untreated 100%): 78%
decrease in the formation of α-Syn aggregates (α-Syn; α-Syn:inhibitor 1:1, α-Syn 100 µM): ~ 54%
α-Syn aggregation decreased to (α-Syn; α-Syn:inhibitor 1:2, α-Syn 100 µM): 72%
α-Syn aggregation decreased to (α-Syn; α-Syn:inhibitor 1:5, α-Syn 100 µM): 77%
dissolution efficiency ([1]; Aβ42/inhibitor 1:1, Aβ42 10 µM): ~ 35%
dissolution efficiency ([1]; Aβ42/inhibitor 1:2, Aβ42 10 µM): ~ 50%
dissolution efficiency ([1]; Aβ42/inhibitor 1:5, Aβ42 10 µM): 75%

CN(C)c1ccc(C#Cc2ccc3c4c(cccc24)C(=O)N(CCOCCO)C3=O)cc1 [TGR65, 6-((4-(dimethylamino)phenyl)ethynyl)-2-(2-(2-hydroxyethoxy)ethyl)-1H-benzo[de]isoquinoline-1,3(2H)-dione]
inhibitory effect on Aβ42 aggregation (ThT NFI at 482 nm) (Aβ42): ~25%
decrease in the formation of Aβ aggregates (Aβ42): ~ 50%
Aβ aggregation decreased to (Aβ42; Aβ42/inhibitor 1:2, Aβ42 10 µM): 75%
Aβ aggregation decreased to (Aβ42; Aβ42/inhibitor 1:5, Aβ42 10 µM): 90%
viability at 40 µM (PC12 cells; Aβ42 alone 54%, untreated 100%): 62%
dissolution efficiency ([1]; Aβ42/inhibitor 1:1, Aβ42 10 µM): ~ 35%
dissolution efficiency ([1]; Aβ42/inhibitor 1:2, Aβ42 10 µM): ~ 50%
dissolution efficiency ([1]; Aβ42/inhibitor 1:5, Aβ42 10 µM): 78%

C[N+](C)(C)CCN1C(=O)c2cccc3cccc(c23)C1=O [TGR66, 2-(1,3-dioxo-1H-benzo[de]isoquinolin-2(3H)-yl)-N,N,N-trimethylethan-1-aminium]
inhibitory effect on Aβ42 aggregation (ThT NFI at 482 nm) (Aβ42): ~ 10%
enhancement in the viability of cells from Aβ toxicity (PC12 cells; PC12 cells): ~ 26%

CN(C)c1ccc2c3c(cccc13)C(=O)N(CC[N+](C)(C)C)C2=O [TGR67, 2-(6-(dimethylamino)-1,3-dioxo-1H-benzo[de]isoquinolin-2(3H)-yl)-N,N,N-trimethylethan-1-aminium]
inhibitory effect on Aβ42 aggregation (ThT NFI at 482 nm) (Aβ42): ~7%
enhancement in the viability of cells from Aβ toxicity (PC12 cells; PC12 cells): ~22%

C[N+](C)(C)CCN1C(=O)c2cccc3c(C#Cc4ccccc4)ccc(c23)C1=O [TGR68, 2-(1,3-dioxo-6-(phenylethynyl)-1H-benzo[de]isoquinolin-2(3H)-yl)-N,N,N-trimethylethan-1-aminium]
inhibitory effect on Aβ42 aggregation (ThT NFI at 482 nm) (Aβ42): ~5%
enhancement in the viability of cells from Aβ toxicity (PC12 cells; PC12 cells): ~8%
